One test has as its system T. evansi AntTat 3/3. In words: Resazurin-based (Alamar blue) drug sensitivity assay. The note with it: read-out: IC50 T. evansi. (Resazurin is reduced to fluorescent resorufin, in cell work by metabolically active cells.)
In test [1] the test system is Candida glabrata (ACPF3309). The conditions noted are these: Nakaseomyces glabratus, read-out: MIC99 Candida glabrata.
The next test has as its system Candida auris (H.17.157). The note with it: for MIC99: Candidozyma auris, read-out: MIC99 Candida auris.
The subject of test [2] is PolyAU double stranded RNA. Description: Fluorescence intercalator displacement (FID) assay, SYBR-safe probe. The note with it: 20 μM compound, 30° C., lower % = stronger binding. The procedure, abridged:
(§1)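 Probe displacement was measured at 30 °C in 1 mM phosphate pH 7.4 containing SybrSafe (12500-fold dilution), 3.76 ng/mL nucleic acid (salmon dsDNA or polyAU dsRNA) and 20 μM compound. Fluorescence loss is normalised between probe-only and probe-plus-nucleic-acid controls.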

The subject of test [3] is Genomic double stranded DNA (salmon). The description is as above. The note with it: 20 μM compound, 30° C., lower % = stronger binding. The essentials: as §1
In the next test the test system is T. equiperdum. In words: Resazurin-based (Alamar blue) drug sensitivity assay. The note with it: Trypanosoma equiperdum, read-out: IC50 T. equiperdum.
In test [4] the test system is A. fumigatus A1160 (MFIG001). The note with it: Aspergillus fumigatus, read-out: MIC99 A. fumigatus A1160.
In another test the test system is C. albicans (ATCC 90028). The note with it: Candida albicans, ATCC90028, read-out: MIC99 C. albicans.
The subject of the next test is C. neoformans (F10025). The conditions noted are these: Cryptococcus neoformans, read-out: MIC99 C. neoformans.
Test [5] concerns Scedosporium prolificans (F2746). The note with it: Lomentospora prolificans, read-out: MIC99 Scedosporium prolificans.
Protocol: (§2) The Minimum Inhibitory Concentration (MIC, at 99% inhibition) of the compounds was determined using the broth microdilution method as recommended by EUCAST (EUCAST Definitive Document E.DEF 9.3.2, Method for the determination of broth dilution minimum inhibitory concentrations of antifungal agents for conidia forming moulds and EUCAST Definitive Document E.DEF 7.3.2 Method for the determination of broth dilution minimum inhibitory concentrations of antifungal agents for yeasts).
For test [6], the system named is Staphylococcus aureus (ATCC 43300). In words: Antibacterial MIC, broth microdilution (CLSI). Format: cell-based. The conditions noted are these: for S. aureus Selectivity Indices, Group: SI, IC50 (μM)/MIC80 (μM), HEK293 cytotoxicity, Alkyl Amidines and NH Pyrroles; for MIC80: Staphylococcus aureus, ATCC43300, read-out: MIC80 S. aureus. (In general: Broth dilution looks for growth in wells or tubes with falling amounts of substance.)

Test [7] relates to Fusarium oxysporum (F7098). The note with it: read-out: MIC99 Fusarium oxysporum.
Protocol: as §2
Test [8] has as its system Enterococcus faecalis (ATCC 51299). Description: Antibacterial MIC, broth microdilution (CLSI). Format: cell-based. The note with it: for MIC80: Enterococcus faecalis, ATCC51299, read-out: MIC80 E. faecalis.
The next test deals with A. flavus (CBS 128.202). The note with it: Aspergillus flavus, CBS128, read-out: MIC99 A. flavus.
The subject of test [9] is Rhizopus arrhizus (NEQAS12.35321). The conditions noted are these: read-out: MIC99 Rhizopus arrhizus.
Protocol: as §2
Test [10] has as its system Escherichia coli (ATCC 25922). In words: Antibacterial MIC, broth microdilution (CLSI). Format: cell-based. The conditions noted are these: Escherichia coli, ATCC25922; read-out: MIC80 E. coli.
Test [11] has as its system SARS-CoV-2 (hCoV-19/Australia/VIC01/2020). In words: SARS-CoV-2 microplaque inhibition assay in Vero-E6 cells. Format: cell-based. The note with it: for IC50: Severe acute respiratory syndrome coronavirus 2, Vero C1008, plaque inhibition, Vero-E6 cells, read-out: IC50 SARS-CoV-2.
Test [12] deals with Human rhinovirus (HRV-14). In words: Viral ToxGlo assay, Hela Ohio cells. Format: cell-based. The note with it: M-HeLa, 72 h.
For the next test, the system named is Influenza (H1N1). Description: Accelerated Viral Neuraminidase Inhibition Assay (AVINA), A549 cells. The conditions noted are these: Influenza A virus, 72 h. The class given is cell-based.

Molecules are shown by their SMILES. In brackets after ≈: the same amount, converted by molar mass.

As a reminder, the IC50 is the concentration that inhibits the measured activity by half. Usually MIC99 stands for an inhibitory concentration at the 99% level, which refers to growth in some studies and to a panel of isolates in others. As a reminder, the MIC80 is the lowest concentration that inhibits either 80% of growth or 80% of the strains tested, depending on the study. The inhibition is how much of the control response was suppressed.

Protocol for A. flavus (CBS 128.202): as §2
Protocol for C. albicans (ATCC 90028): as §2
Protocol for C. neoformans (F10025): as §2
Protocol for T. equiperdum: A detailed description of the procedure for evaluating activity against trypanosomes, using an Alamar Blue (resazurin) assay, is described below.
The bloodstream form (BSF) T. b. brucei s427 (see De Koning, H. P. et al., Mol. Biochem. Parasitol. 2000, 106, 181-185), T. evansi AntTat 3/3 (see Dean, S. et al., Proc. Natl. Acad. Sci. USA, 2013, 110, 14741-14746), and T. equiperdum (see Stewart, M. L. et al., Eukaryot. Cell, 2010, 9, 336-343) were cultured in HMI-9 medium (Life Technologies, Paisley, United Kingdom) supplemented with 10% heat inactivated Foetal Bovine Serum (FBS (PAA Laboratories Linz, Austria)), 14 μL/L β-mercaptoethanol (BDH, Dorset, UK), and 3.0 g/L NaHCO3 (Sigma-Aldrich) and adjusted to pH 7.4. These cell lines were maintained at 37° C. in a humidified, 5% CO2 environment.
A resazurin-based (Alamar blue) drug sensitivity assay was used to assess and compare the activity of standard trypanocides in the different cell lines investigated (see Gould, M. K. et al., Anal. Biochem., 2008, 382, 87-93). Briefly, 23 doubling dilutions of the test compound of the invention, starting at 100 μM, and a compound-free control were prepared in 100 μL medium in a 96-well white plate (Greiner Bio-one, Frickenhausen, Germany). The cells were adjusted to 2×10^4 cells/mL for T. b. brucei and T. equiperdum; 4×10^4 cells/mL for T. evansi; and 5×10^5 cells/mL for T. congolense in the appropriate medium. 100 μL of the adjusted cells was then added to the wells containing drug dilutions and incubated for 48 h under respective culture condition. Thereafter, 20 μL of 125 mg/mL resazurin sodium dye was added, and the plate was incubated for a further 24 h.

Turning to `Cn1cc(NC(=O)c2cc(NC(=O)c3ccc(/C=C/c4ccc5nonc5c4)cc3)c[nH]2)cc1C(=O)NCCC(=N)N` [IIIa1, (E)-N-(3-amino-3-iminopropyl)-4-(4-(4-(2-(benzo[c][1,2,5]oxadiazol-5-yl)vinyl)benzamido)-1H-pyrrole-2-carboxamido)-1-methyl-1H-pyrrole-2-carboxamide], the IC50 with T. evansi AntTat 3/3 and in the test on T. equiperdum was 10 to 100 nM each time. Also, the MIC99 was less than 5 µg/mL in test [1]; more than 50 µg/mL with Candida auris (H.17.157); 5 to 25 µg/mL (≈ 8.84 to 44.2 µM) in test [4]; 25 to 50 µg/mL (≈ 44.2 to 88.4 µM) in the test with C. albicans (ATCC 90028); less than 5 µg/mL with C. neoformans (F10025); 5 to 25 µg/mL (≈ 8.84 to 44.2 µM) in test [5]. Besides, the MIC99 (in test [7]; with A. flavus (CBS 128.202); in [9]) was 5 to 25 µg/mL (≈ 8.84 to 44.2 µM) each time. In addition, the “% Normalised Fluorescence with polyAU RNA” value in test [2] came out at 18%. In addition, in [3], the “% Normalised Fluorescence with gDNA” value turned out to be 17%. The “S. aureus Selectivity Indices, Group” value in [6] is given as “C (Group C: 5 < SI <= 10)”. Further, the MIC80 was less than 5 µM in [6], 5 to 25 µM (≈ 2.83 to 14.1 µg/mL) in [8] and more than 100 µM in test [10]. Also, the “E. faecalis Selectivity Indices, Group” value in [8] (SI, IC50 (μM)/MIC80 (μM), HEK293 cytotoxicity, Alkyl Amidines and NH Pyrroles) was “B (Group B: 3 < SI <= 5)”.

As to `CN(C)c1ccc(/C=C/c2ccc(C(=O)Nc3c[nH]c(C(=O)Nc4cc(C(=O)NCCC(=N)N)n(C)c4)c3)cn2)cc1` [IIIa5, (E)-N-(5-((5-((3-amino-3-iminopropyl)carbamoyl)-1-methyl-1H-pyrrol-3-yl)carbamoyl)-1H-pyrrol-3-yl)-6-(4-(dimethylamino)styryl)nicotinamide], the MIC99 in test [1] was 5 to 25 µg/mL (≈ 8.81 to 44 µM); in the test on Candida auris (H.17.157) it was 5 to 25 µg/mL (≈ 8.81 to 44 µM); in test [4] it was 5 to 25 µg/mL (≈ 8.81 to 44 µM); in the test with C. albicans (ATCC 90028), less than 5 µg/mL; in the test on A. flavus (CBS 128.202) it was 5 to 25 µg/mL (≈ 8.81 to 44 µM); in test [9], 5 to 25 µg/mL (≈ 8.81 to 44 µM). The “C. auris Selectivity Indices, Group” value with Candida auris (H.17.157) (SI, IC50 (μM)/MIC99 (μg/mL), HEK293 cytotoxicity, Alkyl Amidines and NH Pyrroles) is “D (Group D SI > 3)”. The “C. auris Selectivity Index (SI)” value in the test on Candida auris (H.17.157) (SI, IC50 (μM)/MIC99 (μg/mL), HEK293 cytotoxicity, numeric value) came out at 5. Further, the “% Normalised Fluorescence with polyAU RNA” value in test [2] is 3%. Also, the “% Normalised Fluorescence with gDNA” value in test [3] is reported as 11%. For the same compound, the “SARS-CoV-2 Selectivity Indices, Group” value in test [11] (SI, IC50 (μM)/IC50 (μM), HEK293 cytotoxicity, Alkyl Amidines and NH Pyrroles) was “D (Group D: SI > 25)”. Further, the “SARS-CoV-2 Selectivity Index (SI)” value in test [11] (SI, IC50 (μM)/IC50 (μM), HEK293 cytotoxicity, numeric value) is 39. Also, the IC50 is less than 2000 nM in [11] and 100 to 1000 nM in the test with T. equiperdum. Further, the inhibition at 20 µM in [12] is more than 50%; in the test on Influenza (H1N1) it was 25 to 50%. Besides, in [6], the “S. aureus Selectivity Indices, Group” value is “C (Group C: 5 < SI <= 10)”. Besides, the values for the MIC80 in test [6], in test [8] and in [10] were less than 5 µM, 5 to 25 µM (≈ 2.84 to 14.2 µg/mL) and more than 100 µM, respectively.

Turning to `CN(C)c1ccc(/C=C/c2ccc(C(=O)Nc3cc(C(=O)Nc4c[nH]c(C(=O)NCCN5CCOCC5)c4)n(C)c3)cn2)cc1` [IIIb3, (E)-6-(4-(dimethylamino)styryl)-N-(1-methyl-5-((5-((2-morpholinoethyl)carbamoyl)-1H-pyrrol-3-yl)carbamoyl)-1H-pyrrol-3-yl)nicotinamide], the MIC99 in [1] was more than 50 µg/mL; in the test on Candida auris (H.17.157), more than 50 µg/mL; in test [4], 25 to 50 µg/mL (≈ 40.9 to 81.9 µM); in the test on C. albicans (ATCC 90028) it was more than 50 µg/mL; with C. neoformans (F10025) it was more than 50 µg/mL; in test [5], more than 50 µg/mL. In addition, the MIC99 (in test [7]; in the test on A. flavus (CBS 128.202); in test [9]) was more than 50 µg/mL throughout. Further, the “% Normalised Fluorescence with polyAU RNA” value in [2] is listed as 39%. The “% Normalised Fluorescence with gDNA” value in [3] is given as 31%. For the same compound, the MIC80 in test [6] was less than 5 µM; in [8] it was more than 100 µM; in [10], more than 100 µM.

Turning to `C/N=C(/CCNC(=O)c1cc(NC(=O)c2cc(NC(=O)c3ccc(/C=C/c4ccc5nonc5c4)cc3)cn2C)cn1C)NC` [Ia6, 4-(4-((E)-2-(benzo[c][1,2,5]oxadiazol-5-yl)vinyl)benzamido)-1-methyl-N-(1-methyl-5-(((Z)-3-(methylamino)-3-(methylimino)propyl)carbamoyl)-1H-pyrrol-3-yl)-1H-pyrrole-2-carboxamide], the MIC99 in [1] was less than 5 µg/mL; in the test with Candida auris (H.17.157) it was more than 50 µg/mL; in test [4] it was less than 5 µg/mL; in the test on C. albicans (ATCC 90028) it was less than 5 µg/mL; in the test on C. neoformans (F10025) it was less than 5 µg/mL; in test [5] it was less than 5 µg/mL. The figures for the MIC99 (in [7]; with A. flavus (CBS 128.202); in [9]) were less than 5 µg/mL, less than 5 µg/mL and 5 to 25 µg/mL (≈ 8.23 to 41.1 µM), respectively. Besides, the “% Normalised Fluorescence with polyAU RNA” value in test [2] is 6%. Also, the “% Normalised Fluorescence with gDNA” value in test [3] is on record as 3%. In addition, the MIC80 is less than 5 µM in test [6], less than 5 µM in test [8] and more than 100 µM in test [10].

For the compound `C/N=C(/CCNC(=O)c1cc(NC(=O)c2cc(NC(=O)c3ccc(/C=C/c4nc5ccccc5s4)cc3)cn2C)cn1C)NC` [Ia11, 4-(4-((E)-2-(benzo[d]thiazol-2-yl)vinyl)benzamido)-1-methyl-N-(1-methyl-5-(((Z)-3-(methylamino)-3-(methylimino)propyl)carbamoyl)-1H-pyrrol-3-yl)-1H-pyrrole-2-carboxamide], the MIC99 is less than 5 µg/mL in test [1]; more than 50 µg/mL with Candida auris (H.17.157); 5 to 25 µg/mL (≈ 8.03 to 40.1 µM) in [4]; 5 to 25 µg/mL (≈ 8.03 to 40.1 µM) in the test on C. albicans (ATCC 90028); less than 5 µg/mL in the test with C. neoformans (F10025); 5 to 25 µg/mL (≈ 8.03 to 40.1 µM) in test [5]. Further, the MIC99 in test [9] lay in the range of 5 to 25 µg/mL (≈ 8.03 to 40.1 µM). Also, in test [11], the IC50 was 8000 to 32000 nM. The MIC80 in [6] was 5 to 25 µM (≈ 3.11 to 15.6 µg/mL); in test [8] it was more than 100 µM; in test [10], more than 100 µM.

The values above are taken from patent US20250313546A1, “NUCLEIC ACID BINDERS” (UNIVERSITY OF STRATHCLYDE, priority 2022, published 2025).
